In data set [1] the target is T1, human GluN2D (Homo sapiens, UniProt O15399+Q05586).
T1 construct: expressed in transfected cells; host or cells: HEK cells
The data set is described as follows: Ca2+ fluorescence (fluo-8) assay in HEK cells expressing GluN2D. In kind it is cell-based. The note with it: for inhibition at 10 µM: HEK293, 10 μM compound, negative = increase in Ca2+ response, read-out: GluN2D % Inhib. @ 10 μM ± SEM (n).

The target in data set [2] is T2, human GluN2A (Homo sapiens, UniProt Q05586+Q12879).
T2 construct: host or cells: HEK293, tetracycline-induced
The data set is described as follows: Ca2+ fluorescence (fluo-8) assay in HEK cells expressing GluN2A. The settings on record: for IC50: read-out: GluN2A IC50 (nM) ± SEM (n); for inhibition at 10 µM: HEK293, read-out: inhibition of GluN2A activity at 10 μM, 10 μM compound, HEK cell assay. In kind it is cell-based. As for the experimental part:
HEK293 cells expressing the human GRIN1/GRIN2A genes (Chantest Catalog #: CT6120) were grown as an adherent monolayer at 37°C, 5% CO2 in DMEM/Ham’s F12 + 10% tetracycline-screened FBS (Hyclone SH3007.03T) and 500 μg/ml G418. […] To prepare the cells for an experiment, they were rinsed with Dulbecco’s PBS (Ca^2+ and Mg^2+ free) and detached from the flask with TrypLE™ Express (Life Technologies, Carlsbad, CA) using the manufacturer’s recommended methods. Cells collected from the flask were washed twice in Ca^2+/Mg^2+-free Hanks Balanced Salt Solution + 20 mM HEPES (HBSS), and counted and assessed for viability with trypan blue. Washed cells were then dye-loaded by resuspending in Fluo-8/AM calcium sensitive dye plus Component B (AAT Bioquest, Sunnyvale, CA) diluted in HBSS. […] The cell plates were centrifuged at 200 x g, for 2 minutes at 21°C, to create a monolayer of cells at the bottom of the wells.
To initiate an assay, 10 μl of test compound or buffer was added to each well of the cell plate and pre-incubated for 10 minutes in the dark. After 10 minutes, the cell plate was placed in a FDSS 6000 plate reader (Hamamatsu Photonics, Middlesex, NJ); baseline fluorescence readings were collected for 20 seconds. Next, 25 μl of agonist solution (3 μM glutamate, 3 μM glycine, and 1 mM Ca^2+ in HBSS) was added and the change in fluorescence was recorded for 3 minutes.
Results were calculated by computing the ratio of maximum fluorescence achieved during agonist-addition phase vs. baseline fluorescence.

Data set [3] deals with T3, human GluN2B (Homo sapiens, UniProt Q05586+Q13224).
T3 construct: expressed in transfected cells; host or cells: HEK cells
The data set is described as follows: Ca2+ fluorescence (fluo-8) assay in HEK cells expressing GluN2B. In kind it is cell-based. The settings on record: for inhibition at 10 µM: HEK293, 10 μM compound, negative = increase in Ca2+ response, read-out: GluN2B % Inhib. @ 10 μM ± SEM (n).

In data set [4] the target is T4, EP4 (Homo sapiens, UniProt P35408).
T4 construct: CEREP (panel CEREP-80)
The data set is described as follows: CEREP-80 panel ligand binding, EP4. The note with it: read-out: inhibition of EP4 agonist binding.

Data set [5] is described as follows: Kinetic solubility. The note with it: phosphate buffered saline, aqueous buffer, kinetic from dmso stock; in solution by HPLC after dissolution in DMSO and addition to saline. In kind it is physicochemical. As for the experimental part: Compounds were prepared as stock solutions at 20 mM in DMSO and diluted in DMSO to give a range of test concentrations 100-fold greater than final. Compounds were diluted 100-fold into phosphate buffered saline and incubated during mild shaking for 90 min at room temperature. Solutions were filtered through multiscreen solubility filter plate and the filtrate analyzed for compound concentration by HPLC-UV/PDA or LC-MS/MS.

The target in data set [6] is T5, 5-HT1B (Rattus norvegicus, UniProt P28564).
T5 construct: CEREP (panel CEREP-80)
The data set is described as follows: CEREP-80 panel ligand binding, 5-HT1B. The note with it: read-out: inhibition of 5-HT1B antagonist binding.

Data set [7] in a line: Stability in pooled human liver microsomes. In kind it is in vitro ADME. The note with it: pH 7.4, 1 μM compound, read-out: HLM t½. The protocol:
Human liver microsomes were prepared from pooled cryopreserved human hepatocytes (HEP10™, catalog number HMCS10, lot # HuE106, Life Technologies Corporation, Grand Island, NY). According to the vendor, the liver cells from lot HuE106 were derived from tissue obtained from accredited institutions. Consent was obtained by these institutions from the donors or the donor’s legal next of kin, for use of the tissue and its derivatives for research purposes. Microsomes were diluted into 66.7 mM potassium phosphate buffer (pH 7.4) to an approximate concentration of 0.5 mg/mL of microsomal protein. Test compounds (1 μM) were pre-incubated with the microsomes for 5 min at 37°C and then the reaction initiated by addition of […]. After different times up to 30 min, the reactions were quenched, clarified by centrifugation and remaining compound quantified by LC-MS/MS.

Data set [8] has as its system MDR1. The data set is described as follows: in vitro. The note with it: dog, MDCK-MDR1; for Papp A→B: compound added on apical side (A-B), read-out: MDCK A-B permeability; for Papp B→A: compound added on basal side (B-A), read-out: MDCK B-A permeability. In kind it is in vitro ADME. As for the experimental part: MDCK cells transfected with MDR1 were maintained in monolayer culture for 3–4 days in 24-well transporter plates. Cultures with average TEER values of 600–800 Ohm x cm^2 were utilized for experimentation. Test compound was added to either the apical or basal membrane chamber and then efflux across the monolayer was monitored by quantifying compound with LC-MS/MS.

In data set [9] the target is T6, 5-HT2A (Homo sapiens, UniProt P28223).
T6 construct: CEREP (panel CEREP-80)
The data set is described as follows: CEREP-80 panel ligand binding, 5-HT2A. The settings on record: read-out: inhibition of 5-HT2A agonist binding.

Data set [10] has as its system panel of receptors and enzymes relevant to CNS pharmacology (CEREP-80). The data set is described as follows: CEREP-80 panel ligand binding, remainder of the panel. The note with it: 1 μM. The source says: […]. […] […]
Data set [11] deals with AMPA receptor. The data set is described as follows: AMPA receptor-mediated synaptic currents of pyramidal neurons in mouse visual cortex slices. The settings on record: in the presence of 50 μM compound; controls 118±16 pA. Type of data set: cell-based. As for the experimental part: […]. […] […].
Wild-type (WT) mice and GRIN2A knock-out (KO) male mice were bred in house at Boston Children’s Hospital. The GRIN2A-KO colony was derived from mice originally obtained from M. Mishina (1995, University of Tokyo, Japan). All procedures using these mice were approved by the Boston Children’s Hospital Institutional Animal Care and Use Committee. Methods used were previously described in [30] and are summarized below.
Coronal visual cortical slices ([…]) were prepared from postnatal day (P)22–31 male mice following decapitation under isoflurane anesthesia. […]
Layer 2/3 pyramidal neurons were selected based on morphology under infrared differential interference contrast microscopy and their identity confirmed from a brief train of action potentials recorded prior to initiating voltage-clamp recordings. […] All data were acquired and analyzed using custom- made procedures in Igor-Pro Software (WaveMetrics, Lake Oswego, Oregon).
To estimate the relative contribution of NMDA and AMPA receptors to the synaptic current, the amplitude was measured at the time of the peak current at -100 mV for the AMPA receptor-mediated current and at the time point after the current at -100 mV had decayed to less than 5% of its peak amplitude for the NMDA receptor-mediated current. […]

Data set [12] deals with uninjected oocytes. The data set is described as follows: Endogenous currents in control (uninjected) oocytes. Type of data set: cell-based, Xenopus. The settings on record: concentrations up to 10 μM.
Experimental: The cells were then gently aspirated with a Pasteur pipette to remove the follicular tissue; this was followed by washing three times with OR-2 to remove all traces of collagenase. The oocytes were then washed in ND-96 (96 mM NaCl, 2 mM KCl, 1.8 mM CaCl2, 1 mM MgCl2, 5 mM HEPES, 50 ng/L gentamycin, 100 units/ml penicillin and 100 μg/ml streptomycin; pH 7.6) three times and this was followed by incubation in ND-96 at room temperature with mild agitation for 15 minutes; subsequently they were stored for at least 2 hours at 16°C before sorting and selection for injection. Oocytes selected for injection were incubated overnight in ND-96 at 16°C.
Electrodes were filled with 3 M KCl and had resistances that ranged from 0.2–1 MΩ. All measurements were made at a holding potential of -40 mV. Cells were continuously perfused with oocyte recording solution containing 90 mM NaCl, 1 mM KCl, 0.5 mM BaCl2, and 10 mM HEPES (Ph 7.4). […] Co-agonists were applied until a plateau was reached, and test compounds were then added in the continued presence of co-agonists until a new plateau was reached. […] Fraction of current remaining was calculated as [(current in presence of test compound–background current) / (co-agonist current–background current)] and IC50 values were computed using Prism 6.0 (Graphpad).
Where [13] appears, read: inhibition of Ca2+ response, HEK cells, glutamate and glycine 3 μM each, read-out: GluN2D IC50 (nM) ± SEM (n).
Setting [14] is: inhibition of Ca2+ response, HEK cells, glutamate and glycine 3 μM each.
Where [15] appears, read: inhibition of Ca2+ response, HEK cells, glutamate and glycine 3 μM each, read-out: GluN2B IC50 (nM) ± SEM (n).

The values that follow come from paper PMC4734667 (PLoS ONE, 2016).

Values after ≈ are worked out from the molar mass of the structure shown. “Also recorded” adds a separate entry of the source. Read-outs that look alike come from different tables or passages of the source.

T2 sequence (Q12879 23-1464, other chains not shown): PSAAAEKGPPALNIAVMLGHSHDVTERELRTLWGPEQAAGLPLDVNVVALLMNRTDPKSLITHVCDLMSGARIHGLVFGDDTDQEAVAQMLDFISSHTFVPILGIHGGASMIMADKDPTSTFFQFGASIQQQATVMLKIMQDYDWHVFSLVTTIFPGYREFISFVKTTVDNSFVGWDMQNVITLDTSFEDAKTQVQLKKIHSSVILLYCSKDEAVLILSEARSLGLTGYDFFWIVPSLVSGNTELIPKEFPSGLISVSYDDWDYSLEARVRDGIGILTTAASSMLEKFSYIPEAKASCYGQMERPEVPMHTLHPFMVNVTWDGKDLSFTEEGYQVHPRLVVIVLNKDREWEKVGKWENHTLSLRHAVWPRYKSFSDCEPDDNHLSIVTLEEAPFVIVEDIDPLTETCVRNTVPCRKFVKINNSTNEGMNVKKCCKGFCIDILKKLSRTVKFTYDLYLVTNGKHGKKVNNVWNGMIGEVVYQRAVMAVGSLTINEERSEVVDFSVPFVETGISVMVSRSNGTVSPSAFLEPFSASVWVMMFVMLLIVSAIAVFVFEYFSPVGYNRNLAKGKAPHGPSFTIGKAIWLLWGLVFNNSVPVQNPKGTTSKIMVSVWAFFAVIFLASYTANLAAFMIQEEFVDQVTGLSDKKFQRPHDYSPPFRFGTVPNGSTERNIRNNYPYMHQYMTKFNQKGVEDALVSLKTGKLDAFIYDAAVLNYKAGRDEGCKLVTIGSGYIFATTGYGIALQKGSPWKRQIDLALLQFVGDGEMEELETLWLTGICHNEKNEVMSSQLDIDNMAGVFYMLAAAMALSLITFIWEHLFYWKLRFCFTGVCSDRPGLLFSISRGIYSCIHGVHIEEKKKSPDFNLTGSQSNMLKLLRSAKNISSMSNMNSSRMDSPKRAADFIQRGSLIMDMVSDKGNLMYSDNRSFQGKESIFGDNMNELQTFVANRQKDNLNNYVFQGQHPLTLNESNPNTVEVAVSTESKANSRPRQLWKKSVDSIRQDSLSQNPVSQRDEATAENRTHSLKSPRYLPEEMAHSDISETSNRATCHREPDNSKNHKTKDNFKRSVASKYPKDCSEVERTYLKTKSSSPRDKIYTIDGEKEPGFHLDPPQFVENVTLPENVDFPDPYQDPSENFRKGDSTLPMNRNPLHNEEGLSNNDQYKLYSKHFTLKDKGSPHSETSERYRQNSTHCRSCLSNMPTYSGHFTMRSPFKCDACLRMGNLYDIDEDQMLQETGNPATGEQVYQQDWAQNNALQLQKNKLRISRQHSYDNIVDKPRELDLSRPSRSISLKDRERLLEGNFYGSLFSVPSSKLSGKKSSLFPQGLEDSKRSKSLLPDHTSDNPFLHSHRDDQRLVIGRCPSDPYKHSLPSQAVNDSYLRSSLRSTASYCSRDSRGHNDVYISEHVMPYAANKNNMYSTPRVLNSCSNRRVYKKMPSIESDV
T3 sequence (Q13224 27-1484, other chains not shown): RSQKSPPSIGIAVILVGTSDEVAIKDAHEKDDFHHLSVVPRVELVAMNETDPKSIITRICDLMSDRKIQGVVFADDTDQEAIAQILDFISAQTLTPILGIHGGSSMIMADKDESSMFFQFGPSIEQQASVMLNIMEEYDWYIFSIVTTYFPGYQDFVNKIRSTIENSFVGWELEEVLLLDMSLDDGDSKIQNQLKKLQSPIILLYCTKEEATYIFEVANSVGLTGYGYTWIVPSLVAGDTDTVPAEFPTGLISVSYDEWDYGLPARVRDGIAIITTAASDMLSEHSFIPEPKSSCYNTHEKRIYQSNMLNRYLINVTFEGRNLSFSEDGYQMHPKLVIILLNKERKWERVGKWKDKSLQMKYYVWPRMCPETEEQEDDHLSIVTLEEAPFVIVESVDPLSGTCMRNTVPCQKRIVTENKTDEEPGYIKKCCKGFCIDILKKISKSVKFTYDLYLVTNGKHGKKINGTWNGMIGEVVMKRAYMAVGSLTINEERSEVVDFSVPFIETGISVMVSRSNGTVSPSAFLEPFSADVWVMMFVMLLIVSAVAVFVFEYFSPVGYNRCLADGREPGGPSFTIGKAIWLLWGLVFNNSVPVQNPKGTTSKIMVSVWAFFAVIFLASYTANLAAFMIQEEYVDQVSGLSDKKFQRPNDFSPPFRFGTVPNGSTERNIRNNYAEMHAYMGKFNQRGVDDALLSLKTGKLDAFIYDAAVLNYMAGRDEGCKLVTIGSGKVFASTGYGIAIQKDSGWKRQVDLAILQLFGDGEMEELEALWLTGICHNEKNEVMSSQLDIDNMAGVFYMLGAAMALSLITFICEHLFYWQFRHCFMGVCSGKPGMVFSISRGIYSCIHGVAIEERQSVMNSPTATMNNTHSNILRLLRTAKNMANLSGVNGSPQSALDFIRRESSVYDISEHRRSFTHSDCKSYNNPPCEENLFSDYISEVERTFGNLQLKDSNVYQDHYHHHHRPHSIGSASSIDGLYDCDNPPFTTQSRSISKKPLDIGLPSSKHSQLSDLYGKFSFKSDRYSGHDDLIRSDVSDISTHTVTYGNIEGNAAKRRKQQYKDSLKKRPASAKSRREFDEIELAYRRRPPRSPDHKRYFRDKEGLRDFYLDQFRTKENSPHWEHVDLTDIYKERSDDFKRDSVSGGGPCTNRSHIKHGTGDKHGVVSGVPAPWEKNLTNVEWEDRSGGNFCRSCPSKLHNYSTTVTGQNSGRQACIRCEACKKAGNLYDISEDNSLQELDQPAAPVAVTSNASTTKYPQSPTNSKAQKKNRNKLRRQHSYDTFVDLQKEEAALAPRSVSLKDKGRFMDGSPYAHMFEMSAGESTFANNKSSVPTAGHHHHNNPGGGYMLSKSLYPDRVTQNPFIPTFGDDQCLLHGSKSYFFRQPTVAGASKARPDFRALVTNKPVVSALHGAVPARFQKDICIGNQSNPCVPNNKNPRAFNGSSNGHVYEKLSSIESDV
T1 sequence (O15399 28-1336, other chains not shown): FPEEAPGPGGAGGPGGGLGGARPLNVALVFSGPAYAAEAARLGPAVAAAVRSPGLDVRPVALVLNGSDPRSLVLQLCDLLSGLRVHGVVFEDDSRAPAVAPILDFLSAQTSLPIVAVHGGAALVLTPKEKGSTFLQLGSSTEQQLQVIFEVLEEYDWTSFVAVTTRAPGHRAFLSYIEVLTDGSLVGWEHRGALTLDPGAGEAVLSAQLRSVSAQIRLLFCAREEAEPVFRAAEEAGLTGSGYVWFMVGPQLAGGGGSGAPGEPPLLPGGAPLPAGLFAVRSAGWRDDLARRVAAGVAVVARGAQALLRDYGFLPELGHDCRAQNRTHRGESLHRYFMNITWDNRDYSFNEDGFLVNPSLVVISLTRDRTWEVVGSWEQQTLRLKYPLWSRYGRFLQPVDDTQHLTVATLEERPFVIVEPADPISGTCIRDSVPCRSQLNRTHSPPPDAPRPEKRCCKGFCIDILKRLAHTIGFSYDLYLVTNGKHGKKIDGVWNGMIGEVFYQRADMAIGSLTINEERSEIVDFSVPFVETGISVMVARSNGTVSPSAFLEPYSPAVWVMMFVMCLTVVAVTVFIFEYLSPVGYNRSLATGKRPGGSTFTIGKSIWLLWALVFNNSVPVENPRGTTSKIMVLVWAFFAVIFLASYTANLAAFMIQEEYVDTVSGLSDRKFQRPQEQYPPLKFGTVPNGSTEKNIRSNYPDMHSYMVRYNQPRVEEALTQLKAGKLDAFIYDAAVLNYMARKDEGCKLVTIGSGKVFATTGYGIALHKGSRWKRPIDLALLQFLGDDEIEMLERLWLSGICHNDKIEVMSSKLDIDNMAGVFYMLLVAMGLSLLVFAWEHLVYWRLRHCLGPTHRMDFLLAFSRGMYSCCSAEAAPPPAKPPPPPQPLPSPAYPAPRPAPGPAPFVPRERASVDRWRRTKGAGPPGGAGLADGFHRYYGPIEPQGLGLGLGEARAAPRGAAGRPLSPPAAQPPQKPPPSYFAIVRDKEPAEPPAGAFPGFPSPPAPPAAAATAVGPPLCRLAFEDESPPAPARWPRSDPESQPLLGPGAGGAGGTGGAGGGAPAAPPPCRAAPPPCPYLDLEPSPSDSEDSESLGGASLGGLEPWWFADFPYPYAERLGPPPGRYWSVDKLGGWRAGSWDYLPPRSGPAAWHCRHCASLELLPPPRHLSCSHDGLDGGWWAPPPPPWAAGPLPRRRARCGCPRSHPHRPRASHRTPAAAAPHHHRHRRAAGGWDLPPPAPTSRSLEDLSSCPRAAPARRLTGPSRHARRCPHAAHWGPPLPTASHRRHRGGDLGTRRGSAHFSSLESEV
T4 sequence (P35408 whole entry): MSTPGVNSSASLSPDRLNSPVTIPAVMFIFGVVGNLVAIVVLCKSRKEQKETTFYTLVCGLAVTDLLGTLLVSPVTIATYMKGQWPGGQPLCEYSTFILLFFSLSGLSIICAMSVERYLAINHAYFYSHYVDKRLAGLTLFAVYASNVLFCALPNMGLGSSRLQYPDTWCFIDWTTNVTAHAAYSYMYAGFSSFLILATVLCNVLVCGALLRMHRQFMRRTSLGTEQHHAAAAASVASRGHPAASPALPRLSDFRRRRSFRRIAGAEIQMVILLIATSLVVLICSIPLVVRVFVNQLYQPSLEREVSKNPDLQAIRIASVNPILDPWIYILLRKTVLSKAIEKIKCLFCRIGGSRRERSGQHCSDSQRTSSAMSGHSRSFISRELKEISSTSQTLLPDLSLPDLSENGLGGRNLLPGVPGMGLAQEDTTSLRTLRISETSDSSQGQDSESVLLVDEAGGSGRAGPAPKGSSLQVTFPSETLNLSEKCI
T5 sequence (P28564 whole entry): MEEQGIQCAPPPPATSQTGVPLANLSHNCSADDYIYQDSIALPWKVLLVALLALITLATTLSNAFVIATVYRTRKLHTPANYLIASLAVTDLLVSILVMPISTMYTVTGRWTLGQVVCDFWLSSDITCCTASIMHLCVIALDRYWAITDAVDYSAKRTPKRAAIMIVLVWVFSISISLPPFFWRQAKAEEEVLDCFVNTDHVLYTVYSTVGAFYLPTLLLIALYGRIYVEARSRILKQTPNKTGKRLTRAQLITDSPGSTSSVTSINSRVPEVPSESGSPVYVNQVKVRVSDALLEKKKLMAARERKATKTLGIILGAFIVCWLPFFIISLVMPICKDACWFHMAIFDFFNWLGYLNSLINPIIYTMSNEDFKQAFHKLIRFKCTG

Regarding `O=C(O)c1cc(=O)c2c(Cl)cc(Cl)cc2[nH]1` [5,7-DCKA, reference compound], the IC50 is > 10000 nM in data set [1] (setting [13]), 1170 ± 230 nM in data set [2] (setting [14]) and 8400 ± 1400 nM in data set [3] (setting [15]).

Turning to `N[C@@H](Cc1ccccn1)c1ccccc1` [ARL-15896, reference compound], the IC50 was determined as 25000 nM in data set [1] (setting [13]) and 510000 nM in [3] (setting [15]).

As to `C[C@@H]([C@@H](O)c1ccc(O)cc1)N1CCC(O)(c2ccccc2)CC1` [CP-101,606, reference compound], the IC50 in data set [1] (setting [13]) and in data set [2] (setting [14]) was > 10000 nM throughout.

Take `C[C@]12N[C@H](Cc3ccccc31)c1ccccc12` [MK-801, reference compound]: the figures for the IC50 in data set [1] and in [3] were 87 ± 3 nM and 75 ± 4 nM, respectively.

For the compound `Cc1ncc(CNC(=O)c2cnc(CNS(=O)(=O)c3ccc(F)c(Cl)c3)cn2)s1` [MPX-004, 5-(((3-chloro-4-fluorophenyl)sulfonamido)methyl)-N-((2-methylthiazol-5-yl)methyl)pyrazine-2-carboxamide], the inhibition at 1 µM was 27% in [4], 35% in data set [6] and 31% in data set [9]. Besides, the concentration in solution in [5] (solubility at 90 min) came to 16 µM (≈ 7.29 µg/mL). Also, in data set [7], the half-life at 1 μM is 53 min. For the same compound, the Papp A→B in data set [8] came out at 17.3 ×10⁻⁶ cm/s. For the same compound, in data set [8], the Papp B→A was 66.1 ×10⁻⁶ cm/s. The “effects on binding of ligands in the remainder of the panel” value in [10] was “less than 25%”. For the same compound, in data set [11], the “AMPA receptor-mediated synaptic currents” value came to 118±21 pA.

`Cc1ncc(CNC(=O)c2cnc(CNS(=O)(=O)c3ccc(F)c(F)c3)c(C)n2)s1` [MPX-007]: the solubility at 90 min in [5] was 68 µM (≈ 30.8 µg/mL). Further, in data set [12], the “inhibition of currents in control (uninjected) oocytes” value is on record as “no effect; also recorded: No inhibition”. For the same compound, the half-life at 1 μM in data set [7] stood at 63 min. Besides, in [8], the Papp A→B is 14.2 ×10⁻⁶ cm/s and the Papp B→A was 76.8 ×10⁻⁶ cm/s.

For the compound `O=C(O)[C@@H]1[C@H](C(=O)O)NCCN1C(=O)c1ccc2c(ccc3ccccc32)c1` [PPDA, reference compound], the IC50 in data set [1] (setting [13]) came to 34800 nM; in [2] (setting [14]) it was 4860 ± 960 nM; in data set [3] (setting [15]), 8490 ± 1000 nM.

`O=C(NNC(=O)c1ccc(CNS(=O)(=O)c2ccc(F)c(Cl)c2)cc1)c1ccccc1` [TCN-201, 3-chloro-4-fluoro-N-[4-[[2-(phenylcarbonyl)hydrazino]carbonyl]benzyl]benzenesulfonamide, reference compound] came in with a solubility at 90 min in data set [5] of 8 µM (≈ 3.7 µg/mL). Further, the half-life at 1 μM in [7] turned out to be 19 min. Besides, in data set [8], the Papp A→B stood at 7.5 ×10⁻⁶ cm/s and the Papp B→A came to 58.9 ×10⁻⁶ cm/s.

Consider `Cc1ncc(CNC(=O)c2ccc(CNS(=O)(=O)c3ccc(F)c(Cl)c3)cc2)s1` [compound 2], for which the inhibition at 10 µM was -6 ± 2% in data set [1], > 95% in data set [2] and 4 ± 1% in data set [3]. Further, in data set [2], the IC50 turned out to be 398 ± 90 nM.

For the compound `Cc1ncc(CNC(=O)c2ccc(CNS(=O)(=O)c3ccc(F)c(Cl)c3)cn2)s1` [compound 3], the results for the inhibition at 10 µM in [1], in data set [2] and in data set [3] were -6 ± 2%, > 95% and 1 ± 1%, respectively. The IC50 in data set [2] was determined as 75 ± 13 nM.

Turning to `Cc1ncc(CNC(=O)c2cnc(CNS(=O)(=O)c3ccc(F)c(F)c3)cn2)s1` [compound 5], the inhibition at 10 µM in data set [1] is -10 ± 5%; in data set [2] it was > 95%; in data set [3] it was -8 ± 2%. The IC50 in data set [2] was determined as 116 ± 22 nM.

On to `Cc1ncc(CNC(=O)c2ccc(CNS(=O)(=O)c3ccc(F)c(F)c3)cn2)s1` [compound 6], for which the inhibition at 10 µM is -13 ± 10% in data set [1], > 95% in [2] and -1 ± 1% in data set [3]. Besides, in data set [2], the IC50 is 158 ± 30 nM.

As to `Cc1ncc(CNC(=O)c2cnc(CNS(=O)(=O)c3ccc(F)c(Cl)c3)c(C)n2)s1` [compound 7], the inhibition at 10 µM was -1 ± 2% in data set [1], > 95% in data set [2] and -8 ± 1% in data set [3]. For the same compound, the IC50 in [2] amounted to 18 ± 2 nM.

For the compound `Cc1ncc(CNC(=O)c2cnc(CNS(=O)(=O)c3ccc(Cl)c(F)c3)c(C)n2)s1` [compound 8], the inhibition at 10 µM in data set [1] was 6 ± 6%; in data set [2], > 95%; in data set [3] it was -7 ± 2%. Moreover, the IC50 in data set [2] stood at 971 ± 242 nM.

On to `Cc1ncc(CNC(=O)c2cnc(CN(C)S(=O)(=O)c3ccc(F)c(Cl)c3)c(C)n2)s1` [compound 10], for which, in data set [2], the inhibition at 10 µM is > 95% and the IC50 amounted to 242 ± 61 nM.

The IC50 is the concentration that gives 50% inhibition. As usually defined, the solubility is the dissolved amount per volume that the medium holds.
